Experimental data taken from patent publication US20260265233A1, “BENZOTHIOPHENE DERIVATIVES AS RXFP1 AGONISTS” (BRISTOL-MYERS SQUIBB COMPANY, priority 2021, published 2026).

Biological target: T1, human RXFP1 (Homo sapiens, UniProt Q9HBX9)
T1 construct: expressed in transfected cells
T1 sequence (Q9HBX9 1-757): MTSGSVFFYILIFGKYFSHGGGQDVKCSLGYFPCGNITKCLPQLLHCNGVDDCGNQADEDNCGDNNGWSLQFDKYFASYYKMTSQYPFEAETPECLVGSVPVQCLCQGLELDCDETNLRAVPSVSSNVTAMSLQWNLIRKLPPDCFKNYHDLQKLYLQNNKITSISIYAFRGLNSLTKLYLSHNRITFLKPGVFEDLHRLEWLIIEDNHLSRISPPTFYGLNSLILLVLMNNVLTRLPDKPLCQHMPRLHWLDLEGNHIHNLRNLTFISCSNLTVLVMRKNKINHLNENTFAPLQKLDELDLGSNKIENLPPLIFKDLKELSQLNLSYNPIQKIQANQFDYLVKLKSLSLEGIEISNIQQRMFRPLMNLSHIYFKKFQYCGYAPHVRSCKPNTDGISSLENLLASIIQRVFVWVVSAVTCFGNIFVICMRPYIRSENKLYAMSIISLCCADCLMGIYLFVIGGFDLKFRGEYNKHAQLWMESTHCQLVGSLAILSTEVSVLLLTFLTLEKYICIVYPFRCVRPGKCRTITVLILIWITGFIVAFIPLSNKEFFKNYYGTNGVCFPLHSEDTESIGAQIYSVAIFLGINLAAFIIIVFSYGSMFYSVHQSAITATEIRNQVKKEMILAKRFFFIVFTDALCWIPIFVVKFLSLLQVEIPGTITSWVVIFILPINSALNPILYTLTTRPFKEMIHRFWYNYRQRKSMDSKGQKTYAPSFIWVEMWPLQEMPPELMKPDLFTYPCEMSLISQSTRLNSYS
Assay: hRXFP1 HEK293 cAMP assay (HTRF)
Type: cell-based
Conditions: HEK293 cells stably expressing human RXFP1; 30 min at rt; intracellular cAMP by HTRF
Outline: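 HEK293 cells stably expressing human RXFP1 treated 30 min at rt with compound (0.010 nM to 50 μM, 2% DMSO) in HBSS/HEPES buffer with 0.5 mM IBMX. Intracellular cAMP measured by HTRF (665/590 nm ratio) against a cAMP standard curve; potency fitted by 4-parameter logistic.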

| Structure (SMILES) | EC50 |
| --- | --- |
| COc1cc(F)c(C(=O)N2CC3(COC3)C2)cc1C(=O)Nc1c(C(=O)Nc2ccc(F)c(C(F)(F)F)c2)sc2cc(C(F)(F)F)ccc12 [Example 185, 3-(4-fluoro-2-methoxy-5-(2-oxa-6-azaspiro[3.3]heptane-6-carbonyl)benzamido)-N-(4-fluoro-3-(trifluoromethyl)phenyl)-6-(trifluoromethyl) benzo[b] thiophene-2-carboxamide] | 736 nM |
| COc1cc(F)c(C(=O)NCC2(S(C)(=O)=O)CC2)cc1C(=O)Nc1c(C(=O)Nc2ccc(F)c(C(F)(F)F)c2)sc2cc(C(F)(F)F)ccc12 [Example 186, 4-fluoro-N1-(2-((4-fluoro-3-(trifluoromethyl)phenyl)carbamoyl)-6-(trifluoromethyl)benzo[b]thiophen-3-yl)-6-methoxy-N3-((1-(methylsulfonyl)cyclopropyl)methyl) isophthalamide] | 102 nM |
| COc1cc(C)c(C(=O)NCC2(S(C)(=O)=O)CC2)cc1C(=O)Nc1c(C(=O)Nc2ccc(F)c(C(F)(F)F)c2)sc2cc(C(F)(F)F)ccc12 [Example 187, N1-(2-((4-fluoro-3-(trifluoromethyl)phenyl)carbamoyl)-6-(trifluoromethyl)benzo[b]thiophen-3-yl)-6-methoxy-4-methyl-N3-((1-(methylsulfonyl)cyclopropyl)methyl) isophthalamide] | 328 nM |
| COc1ccc(S(=O)(=O)N2CCC[C@@H](NC(=O)CCO)C2)cc1C(=O)Nc1c(C(=O)Nc2ccc(F)c(C(F)(F)F)c2)sc2cc(C(F)(F)F)ccc12 [Example 189, (R)-N-(4-fluoro-3-(trifluoromethyl)phenyl)-3-(5-((3-(3-hydroxy-propanamido)piperidin-1-yl)sulfonyl)-2-methoxy-benzamido)-6-(trifluoromethyl) benzo[b] thiophene-2-carboxamide] | 491 nM |
| COc1ccc(C(=O)NC(C)(C)CO)cc1C(=O)Nc1c(C(=O)Nc2ccc(F)c(C(F)(F)F)c2)sc2cc(C(F)(F)F)ccc12 [Example 190, N3-(2-((4-fluoro-3-(trifluoromethyl)phenyl)carbamoyl)-6-(trifluoromethyl)benzo[b]thiophen-3-yl)-N1-(1-hydroxy-2-methylpropan-2-yl)-4-methoxy-isophthalamide] | 689 nM |
| COc1ccc(C(=O)N2CC(O)C2)cc1C(=O)Nc1c(C(=O)Nc2ccc(F)c(C(F)(F)F)c2)sc2cc(C(F)(F)F)ccc12 [Example 191, N-(4-fluoro-3-(trifluoromethyl)phenyl)-3-(5-(3-hydroxyazetidine-1-carbonyl)-2-methoxy-benzamido)-6-(trifluoromethyl) benzo[b] thiophene-2-carboxamide] | 346 nM |
| COc1ccc(C2CC3CCC(C2)N3CC(N)=O)cc1C(=O)Nc1c(C(=O)Nc2ccc(F)c(C(F)(F)F)c2)sc2cc(C(F)(F)F)ccc12 (stereo not drawn) [Example 192, 3-(5-(8-(2-amino-2-oxoethyl)-8-azabicyclo[3.2.1]octan-3-yl)-2-methoxy-benzamido)-N-(4-fluoro-3-(trifluoromethyl)phenyl)-6-(trifluoromethyl) benzo[b] thiophene-2-carboxamide] | 889 nM |
| COc1ccc(C2CC3CCC(C2)N3CCS(C)(=O)=O)cc1C(=O)Nc1c(C(=O)Nc2ccc(F)c(C(F)(F)F)c2)sc2cc(C(F)(F)F)ccc12 (stereo not drawn) [Example 193, N-(4-fluoro-3-(trifluoromethyl)phenyl)-3-(2-methoxy-5-(8-(2-(methylsulfonyl)ethyl)-8-azabicyclo[3.2.1]octan-3-yl)benzamido)-6-(trifluoromethyl) benzo[b] thiophene-2-carboxamide] | 300 nM |
| COc1ccc(N2CCC3(CN(CCS(C)(=O)=O)C3)C2)cc1C(=O)Nc1c(C(=O)Nc2ccc(F)c(C(F)(F)F)c2)sc2cc(C(F)(F)F)ccc12 [Example 194, N-(4-fluoro-3-(trifluoromethyl)phenyl)-3-(2-methoxy-5-(2-(2-(methylsulfonyl)ethyl)-2,6-diazaspiro[3.4]octan-6-yl)benzamido)-6-(trifluoromethyl) benzo[b] thiophene-2-carboxamide] | 746 nM |
